How the values were obtained:
PRMT5/MEP50 = PRMT5/MEP50 (Homo sapiens (Human), UniProt O14744); assay: PRMT5 Biochemical Assay (PRMT5/MEP50 enzyme assay on peptide substrate, 3H-SAM Flashplate); details: PRMT5/MEP50 4 nM, 3H-SAM 75 nM, peptide 40 nM
Text: S-adenosylmethionine (SAM), S-adenosylhomocysteine (SAH), bicine, KCl, Tween20, dimethylsulfoxide (DMSO), bovine skin gelatin (BSG), and Tris(2-carboxyethyl)phosphine hydrochloride solution (TCEP) were purchased from Sigma-Aldrich at the highest level of purity possible. ^3H-SAM was purchase from American Radiolabeled Chemicals with a specific activity of 80 Ci/mmol. 384-well streptavidin Flashplates were purchased from PerkinElmer.
Peptide representative of human histone H4 residues 1-15 was synthesized with a C-terminal linker-affinity tag motif and a C-terminal amide cap by 21st Century Biochemicals. The peptide was high high-performance liquid chromatography (HPLC) purified to greater than 95% purity and confirmed by liquid chromatography mass spectrometry (LC-MS). The sequence was Ac-[…][K-Biot]-amide (SEQ ID NO.: 3).
Full-length human PRMT5 (NM_006109.3) transcript variant 1 clone was amplified from a fetal brain cDNA library, incorporating flanking 5′ sequence encoding a FLAG tag ([…]) (SEQ ID NO.: 4) fused directly to Ala 2 of PRMT5. Full-length human MEP50 (NM_024102) clone was amplified from a human testis cDNA library incorporating a 5′ sequence encoding a 6-histidine tag (MHHHHHH) (SEQ ID NO.: 5) fused directly to Arg 2 of MEP50. The amplified genes were sublconed into pENTR/D/TEV (Life Technologies) and subsequently transferred by Gateway™ attL x attR recombination to pDEST8 baculvirus expression vector (Life Technologies).
Recombinant baculovirus and Baculovirus-Infected Insect Cells (BIIC) were generated according to Bac-to-Bac kit instructions (Life Technologies) and Wasilko, 2006, respectively. Protein over-expression was accomplished by infecting exponentially growing Spodoptera frugiperda (SF9) cell culture at 1.2×10^6 cell/ml with a 5000 fold dilution of BIIC stock. Infections were carried out at 27° C. for 72 hours, harvested by centrifugation, and stored at −80° C. for purification.
Flag-PRMT5/6His-MeP50 was eluted with 300 mM Imidazole in the same buffer. The purity of recovered protein was 87%. Reference: Wasilko, D. J. and S. E. Lee: “TIPS: titerless infected-cells preservation and scale-up” Bioprocess J., 5 (2006), pp. 29-32.
General Procedure for PRMT5/MEP50 Enzyme Assays on Peptide Substrates.
The assays were all performed in a buffer consisting of 20 mM Bicine (pH=7.6), 1 mM TCEP, 0.005% BSG, and 0.002% Tween20, prepared on the day of use. Compounds in 100% DMSO (1 ul) were spotted into a polypropylene 384-well V-bottom plates (Greiner) using a Platemate Plus outfitted with a 384-channel head (Thermo Scientific). DMSO (1 ul) was added to Columns 11, 12, 23, 24, rows A-H for the maximum signal control and 1 ul of SAH, a known product and inhibitor of PRMT5/MEP50, was added to columns 11, 12, 23, 24, rows I-P for the minimum signal control. A cocktail (40 ul) containing the PRMT5/MEP50 enzyme and the peptide was added by Multidrop Combi (Thermo-Fisher). The compounds were allowed to incubate with PRMT5/MEP50 for 30 min at 25 degrees Celsius, then a cocktail (10 ul) containing ^3H-SAM was added to initiate the reaction (final volume=51 ul). The final concentrations of the components were as follows: PRMT5/MEP50 was 4 nM, ^3H-SAM was 75 nM, peptide was 40 nM, SAH in the minimum signal control wells was 100 uM, and the DMSO concentration was 1%. The assays were stopped by the addition of non-radioactive SAM (10 ul) to a final concentration of 600 uM, which dilutes the ^3H-SAM to a level where its incorporation into the peptide substrate is no longer detectable. 50 ul of the reaction in the 384-well polypropylene plate was then transferred to a 384-well Flashplate and the biotinylated peptides were allowed to bind to the streptavidin surface for at least 1 hour before being washed three times with 0.1% Tween20 in a Biotek ELx405 plate washer. […]

Z-138 cells = assay: Z-138 Proliferation Assay (Cell Titer Glo); assay type: cell-based; details: 5 days incubation
Text: [formula] Z-138 Proliferation Assay
Z-138 suspension cells were purchased from ATCC (American Type Culture Collection, Manassas, Va.). RPMI/Glutamax medium, penicillin-streptomycin, heat inactivated fetal bovine serum were purchased from Life Technologies, Grand Island, N.Y., USA. V-bottom polypropylene 384-well plates were purchased from Greiner Bio-One, Monroe, N.C., USA. Cell culture 384-well white opaque plates were purchased from Perkin Elmer, Waltham, Mass., USA. Cell-Titer Glo® was purchased from Promega Corporation, Madison, Wis., USA. SpectraMax M5 plate reader was purchased from Molecular Devices LLC, Sunnyvale, Calif., USA.
Z-138 suspension cells were maintained in growth medium (RPMI 1640 supplemented with 10% v/v heat inactivated fetal bovine serum and cultured at 37° C. under 5% CO2. Under assay conditions, cells were incubated in assay medium (RPMI 1640 supplemented with 10% v/v heat inactivated fetal bovine serum and 100 units/mL penicillin-streptomycin) at 37° C. under 5% CO2.
For the assessment of the effect of compounds on the proliferation of the Z-138 cell line, exponentially growing cells were plated in 384-well white opaque plates at a density of 10,000 cells/ml in a final volume of 50 μl of assay medium. A compound source plate was prepared by performing triplicate nine-point 3-fold serial dilutions in DMSO, beginning at 10 mM (final top concentration of compound in the assay was 20 μM and the DMSO was 0.2%). A 100 nL aliquot from the compound stock plate was added to its respective well in the cell plate. […] After addition of compounds, assay plates were incubated for 5 days at 37° C., 5% CO2, relative humidity >90%.
Cell viability was measured by quantitation of ATP present in the cell cultures, adding 35 μl of Cell Titer Glo® reagent to the cell plates. Luminescence was read in the SpectraMax M5 microplate reader. The concentration of compound inhibiting cell viability by 50% was determined using a 4-parametric fit of the normalized dose response curves.

Sequence of PRMT5/MEP50 (O14744 other isoform, or with tags, fused parts or gaps): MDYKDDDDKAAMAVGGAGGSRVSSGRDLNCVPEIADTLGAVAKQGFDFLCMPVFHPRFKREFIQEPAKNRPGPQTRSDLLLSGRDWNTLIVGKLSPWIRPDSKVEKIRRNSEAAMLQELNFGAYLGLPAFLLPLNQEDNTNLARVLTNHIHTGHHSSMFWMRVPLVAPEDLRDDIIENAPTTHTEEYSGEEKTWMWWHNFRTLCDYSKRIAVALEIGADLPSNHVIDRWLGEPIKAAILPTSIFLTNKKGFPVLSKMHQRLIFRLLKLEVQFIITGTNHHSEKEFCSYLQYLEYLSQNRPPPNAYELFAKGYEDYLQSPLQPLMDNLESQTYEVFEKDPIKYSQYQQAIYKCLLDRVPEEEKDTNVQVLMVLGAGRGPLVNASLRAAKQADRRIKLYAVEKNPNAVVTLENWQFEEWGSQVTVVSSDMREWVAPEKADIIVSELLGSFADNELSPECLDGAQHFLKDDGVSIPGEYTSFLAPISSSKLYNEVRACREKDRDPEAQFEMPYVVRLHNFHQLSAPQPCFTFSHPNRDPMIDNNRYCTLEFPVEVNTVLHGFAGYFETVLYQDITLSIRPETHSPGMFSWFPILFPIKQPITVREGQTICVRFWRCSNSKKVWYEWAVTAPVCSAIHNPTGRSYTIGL
Sequence of PRMT5/MEP50 (Q9BQA1 other isoform, or with tags, fused parts or gaps partner): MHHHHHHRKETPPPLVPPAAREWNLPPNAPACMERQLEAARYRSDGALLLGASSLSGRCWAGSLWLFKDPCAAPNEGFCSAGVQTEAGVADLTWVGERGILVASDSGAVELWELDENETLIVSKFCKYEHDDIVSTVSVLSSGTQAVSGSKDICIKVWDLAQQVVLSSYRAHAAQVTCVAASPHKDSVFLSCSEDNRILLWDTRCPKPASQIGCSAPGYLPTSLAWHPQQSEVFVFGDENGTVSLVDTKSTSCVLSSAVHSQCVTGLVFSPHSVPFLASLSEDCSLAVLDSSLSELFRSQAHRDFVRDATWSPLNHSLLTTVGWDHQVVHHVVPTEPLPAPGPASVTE

Compound	IC50 (PRMT5/MEP50)	EC50 (Z-138 cells; Homo sapiens, 120 h)	EC50 (Z-138 cells)
C[C@@H](Oc1cccc2cccnc12)C(=O)NC[C@H](O)CN1Cc2ccccc2C1 [compound 5, (R)—N—((S)-2-hydroxy-3-(isoindolin-2-yl)propyl)-2-(quinolin-8-yloxy)propanamide]	< 0.1 µM	1 to 10 µM	
O=C(COc1ccccc1-c1cc[nH]n1)NCC(O)CN1Cc2ccccc2C1 (centres unmarked) [compound 7]	0.101 to 1 µM	> 20 µM	
O=C(NCC(O)CN1Cc2ccccc2C1)c1cccc(-c2ccccn2)c1 (centres unmarked) [compound 13, N-(2-hydroxy-3-(isoindolin-2-yl)propyl)-3-(pyridin-2-yl)benzamide]	0.101 to 1 µM	> 20 µM	
CN(C)S(=O)(=O)c1ccccc1OCC(=O)NCC(O)CN1Cc2ccccc2C1 (centres unmarked) [compound 15, 2-(2-(N,N-dimethylsulfamoyl)phenoxy)-N-(2-hydroxy-3-(isoindolin-2-yl)propyl)acetamide]	< 0.1 µM	1 to 10 µM	
O=C(COc1cccc2cccnc12)NCC(O)CN1Cc2ccccc2C1 (centres unmarked) [compound 19, N-(2-hydroxy-3-(isoindolin-2-yl)propyl)-2-(quinolin-8-yloxy)acetamide]	0.101 to 1 µM	> 20 µM	
O=C(NC[C@H](O)CN1Cc2ccccc2C1)c1cccc(NC2CCOCC2)c1 [compound 28]	< 0.1 µM	10 to 50 µM	
O=C(NC[C@H](O)CN1Cc2ccccc2C1)c1cc(NC2CCOCC2)ncn1 [compound 29]	< 0.1 µM	1 to 10 µM	
Cc1nc(NC2COC2)cc(C(=O)NC[C@H](O)CN2Cc3ccccc3C2)n1 [compound 35]	0.101 to 1 µM	> 20 µM	
O=C(NC[C@H](O)CN1Cc2ccccc2C1)c1cc(NC2COC2)nc(C(F)(F)F)n1 [compound 36]	0.101 to 1 µM	10 to 50 µM	
O=C(CCc1nc2ccccc2[nH]1)NCC(O)CN1Cc2ccccc2C1 (centres unmarked) [compound 37]	0.101 to 1 µM	> 20 µM	
O=C(NC[C@H](O)CN1Cc2ccccc2C1)c1cc(NC2COC2)nc(N2CCOCC2)n1 [compound 38]	< 0.1 µM	1 to 10 µM	
CC(=O)N1CCC(Nc2cc(C(=O)NC[C@H](O)CN3Cc4ccccc4C3)ccn2)CC1 [compound 40]	< 0.1 µM	0.101 to 1 µM	
O=C(NC[C@H](O)CN1CCc2ccccc21)c1cc(NC2COC2)ncn1 [compound 42]	> 10 µM	> 5 µM	
CC(=O)N1CCC(Nc2cc(C(=O)NC[C@H](O)CN3CCc4ccccc43)ncn2)CC1 [compound 43]	> 10 µM	> 5 µM	
CC(=O)N1CCC(Nc2cc(C(=O)NC[C@H](O)CN3CCc4ccccc43)ccn2)CC1 [compound 44]	> 10 µM	> 5 µM	
O=C(NC[C@H](O)CN1CCCCc2ccccc21)c1cc(NC2COC2)ncn1 [compound 45]	> 10 µM	> 5 µM	
CC(=O)N1CC(Nc2cc(C(=O)NC[C@H](O)CN3CCCCc4ccccc43)ncn2)C1 [compound 46]	> 10 µM	> 5 µM	
CC(=O)N1CCC(Nc2cc(C(=O)NC[C@H](O)CN3CCCCc4ccccc43)ncn2)CC1 [compound 47]	1 to 10 µM	> 5 µM	
O=C(NC[C@H](O)CN1CCCc2ccccc2C1)c1cc(NC2COC2)ncn1 [compound 48]	> 10 µM	> 5 µM	
CC(=O)N1CC(Nc2cc(C(=O)NC[C@H](O)CN3CCCc4ccccc4C3)ncn2)C1 [compound 49]	1 to 10 µM	> 5 µM	
CC(=O)N1CCC(Nc2cc(C(=O)NC[C@H](O)CN3CCCc4ccccc4C3)ncn2)CC1 [compound 50]	> 10 µM	> 5 µM	
N-(2-hydroxy-3-(isoindolin-2-yl)propyl)-2-((4-methyl-3,4-dihydro-2H-benzo[b][1,4]oxazin-5-yl)oxy)acetamide [compound 10]	0.101 to 1 µM		> 20 µM

— patent publication US10118918B2, “PRMT5 inhibitors and uses thereof” (Epizyme, Inc., priority 2012, dated 2018)
